From patent US20230407243A1, “GENETIC PLATFORM TO INVESTIGATE THE FUNCTIONS OF BACTERIAL DRUG EFFLUX PUMPS” (priority 2022, published 2023)

Tests used:
Type in all cases: cell-based, Escherichia coli
EKO-35 araC::macAB = assay: MIC susceptibility profiling, efflux platform
Procedure, shortened: (§1)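 Overnight LB cultures (37 °C, 18 h) were resuspended in PBS pH 7.4 to OD600 ~1.0 and diluted 1/2000 into MHB II. Strains were exposed to 2-fold serial compound dilutions in duplicate for 18 h at 37 °C with shaking. MIC was read from OD600 after subtracting pre-incubation background.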

EKO-35 araC::emrAB = assay: MIC susceptibility profiling, efflux platform
Procedure, shortened: as §1

EKO-35 araC::acrBD408A = assay: MIC susceptibility profiling, efflux platform
Procedure, shortened: as §1

EKO-35 araC::mdtEF = assay: MIC susceptibility profiling, efflux platform
Procedure, shortened: as §1

EKO-35 araC::acrEF = assay: MIC susceptibility profiling, efflux platform
Procedure, shortened: as §1

EKO-35 araC::emrKY = assay: MIC susceptibility profiling, efflux platform
Procedure, shortened: as §1

ΔtolC-Pore = assay: microbe, parasite or virus in culture; details: technical duplicate
Procedure, shortened: (§2)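 Strains carry the fhuA ΔC/Δ4L pore integrated between glmS and pstS under a constitutive promoter, with pore activity checked by vancomycin susceptibility. Overnight LB cultures were adjusted in PBS pH 7.4 to OD600 ~1.0 and diluted 1/2000 into MHB II. 2-fold compound titrations were read by OD600 after 18 h at 37 °C.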

wild-type (WT) K-12-Pore = assay: microbe, parasite or virus in culture; details: technical duplicate
Procedure, shortened: as §2

EKO-35 araC::emrKY Pore = assay: MIC susceptibility profiling, porinated efflux platform
Procedure, shortened: as §2

EKO-35 araC::mexCD Pore = assay: as above
Procedure, shortened: as §2

EKO-35 araC::mdtBC Pore = assay: as above
Procedure, shortened: as §2

EKO-35 araC::acrB Pore = assay: as above
Procedure, shortened: as §2

EKO-35 araC::macAB Pore = assay: as above
Procedure, shortened: as §2

[1] = system: EKO-35 araC::acrBD408A Pore; assay: as above
Procedure, shortened: as §2

EKO-35 araC::emrAB Pore = assay: as above
Procedure, shortened: as §2

EKO-35 araC::mdtEF Pore = assay: as above
Procedure, shortened: as §2

EKO-35 araC::acrEF Pore = assay: as above
Procedure, shortened: as §2

EKO-35 araC::acrD Pore = assay: as above
Procedure, shortened: as §2

[2] = Table 13B, non-porinated, technical duplicate
[3] = Table 13A, non-porinated, technical duplicate
[4] = Table 14A, porinated, technical duplicate

For `C[C@H](CCC(=O)NCCS(=O)(=O)[O-])[C@H]1CC[C@H]2[C@@H]3CC[C@@H]4C[C@H](O)CC[C@]4(C)[C@H]3C[C@H](O)[C@]12C.[Na+]` [sodium taurodeoxycholate], the “Fold change of MICs” value (EKO-35 araC::macAB; EKO-35 araC::macAB compared to EKO-35) was 1 fold, the “Minimum Inhibitory Concentration, EKO-35 araC::macAB” value (EKO-35 araC::macAB; [2]) was 250 µg/mL and the “Fold change of MICs” value (EKO-35 araC::emrAB; EKO-35 araC::emrAB compared to EKO-35) was 2 fold. For the same molecule, the “Minimum Inhibitory Concentration, EKO-35 araC::emrAB” value (EKO-35 araC::emrAB; [2]) was 1000 µg/mL, the “Fold change of MICs” value (EKO-35 araC::acrBD408A; EKO-35 araC::acrBD408A compared to EKO-35) was 2 fold and the “Minimum Inhibitory Concentration, EKO-35 araC::acrBD408A” value (EKO-35 araC::acrBD408A; [2]) was 1000 µg/mL. The “Fold change of MICs” value (EKO-35 araC::mdtEF; EKO-35 araC::mdtEF compared to EKO-35) was 2 fold, the “Minimum Inhibitory Concentration, EKO-35 araC::mdtEF” value (EKO-35 araC::mdtEF; [3]) was 1000 µg/mL and the “Fold change of MICs” value (EKO-35 araC::acrEF; EKO-35 araC::acrEF compared to EKO-35) was 2 fold. The “Minimum Inhibitory Concentration, EKO-35 araC::acrEF” value (EKO-35 araC::acrEF; [3]) was 1000 µg/mL, the “Fold change of MICs” value (EKO-35 araC::emrKY; EKO-35 araC::emrKY compared to EKO-35) was 1 fold and the “Minimum Inhibitory Concentration, EKO-35 araC::emrKY” value (EKO-35 araC::emrKY; [2]) was 500 µg/mL. For the same molecule, the “Minimum inhibitory concentration (MIC), Pore ΔtolC” value (ΔtolC-Pore; Table 10, with pore) was 250 µg/mL, the “Minimum inhibitory concentration, ΔtolC-Pore” value (ΔtolC-Pore; Table 14A, porinated) was 250 µg/mL and the “Minimum inhibitory concentration (MIC), Pore K-12” value (wild-type (WT) K-12-Pore; Table 10, with pore) was 1000 µg/mL. For the same molecule, the “Minimum inhibitory concentration, K-12 (WT)-Pore” value (wild-type (WT) K-12-Pore; Table 14A, porinated) was 1000 µg/mL, the “Fold changes of MICs” value (EKO-35 araC::emrKY Pore; EKO-35 araC::emrKY Pore compared to EKO-35-Pore) was 1 fold and the Minimum inhibitory concentration (EKO-35 araC::emrKY Pore; EKO-35 araC::emrKY Pore, technical duplicate) was 250 µg/mL. For the same molecule, the “Fold changes of MICs” value (EKO-35 araC::mexCD Pore; EKO-35 araC::mexCD Pore compared to EKO-35-Pore) was 4 fold, the Minimum inhibitory concentration (EKO-35 araC::mexCD Pore; EKO-35 araC::mexCD Pore, technical duplicate) was 1000 µg/mL and the “efflux pump-mediated resistance vs EKO-35-Pore” value (EKO-35 araC::mexCD Pore; MexCD, OM compromised) was “increased resistance”. For the same molecule, the “Fold changes of MICs” value (EKO-35 araC::mdtBC Pore; EKO-35 araC::mdtBC Pore compared to EKO-35-Pore) was 4 fold, the Minimum inhibitory concentration (EKO-35 araC::mdtBC Pore; EKO-35 araC::mdtBC Pore, technical duplicate) was 1000 µg/mL and the “efflux pump-mediated resistance vs EKO-35-Pore” value (EKO-35 araC::mdtBC Pore; MdtBC with the pore) was “associated MdtBC with resistance”. The “efflux pump-mediated resistance vs EKO-35-Pore” value (EKO-35 araC::acrB Pore; AcrB with the pore) was “increased resistance”, the “Fold changes of MICs” value (EKO-35 araC::acrB Pore; EKO-35 araC::acr-B Pore compared to EKO-35-Pore) was 4 fold and the “Minimum inhibitory concentration, EKO-35 araC::acrB Pore” value (EKO-35 araC::acrB Pore; [4]) was 1000 µg/mL. For the same molecule, the “Fold changes of MICs” value (EKO-35 araC::macAB Pore; EKO-35 araC::macAB Pore compared to EKO-35-Pore) was 1 fold, the Minimum inhibitory concentration (EKO-35 araC::macAB Pore; EKO-35 araC::macAB Pore, technical duplicate) was 250 µg/mL and the “Fold changes of MICs” value ([1]; EKO-35 araC::acrBD408A Pore compared to EKO-35-Pore) was 1 fold. For the same molecule, the Minimum inhibitory concentration ([1]; EKO-35 araC::acrBD408A Pore, technical duplicate) was 250 µg/mL, the “Fold changes of MICs” value (EKO-35 araC::emrAB Pore; EKO-35 araC::emrAB Pore compared to EKO-35-Pore) was 2 fold and the Minimum inhibitory concentration (EKO-35 araC::emrAB Pore; EKO-35 araC::emrAB Pore, technical duplicate) was 500 µg/mL. The “Fold changes of MICs” value (EKO-35 araC::mdtEF Pore; EKO-35 araC::mdtEF Pore compared to EKO-35-Pore) was 4 fold, the “efflux pump-mediated resistance vs EKO-35-Pore” value (EKO-35 araC::mdtEF Pore; MdtEF with the pore) was “increased resistance” and the “Minimum inhibitory concentration, EKO-35 araC::mdtEF Pore” value (EKO-35 araC::mdtEF Pore; [4]) was 1000 µg/mL. For the same molecule, the “efflux pump-mediated resistance vs EKO-35-Pore” value (EKO-35 araC::acrEF Pore; AcrEF with the pore) was “increased resistance”, the “Fold changes of MICs” value (EKO-35 araC::acrEF Pore; EKO-35 araC::acrEF Pore compared to EKO-35-Pore) was 4 fold and the “Minimum inhibitory concentration, EKO-35 araC::acrEF Pore” value (EKO-35 araC::acrEF Pore; [4]) was 1000 µg/mL. The “Fold changes of MICs” value (EKO-35 araC::acrD Pore; EKO-35 araC::acrD Pore compared to EKO-35-Pore) was 4 fold and the “Minimum inhibitory concentration, EKO-35 araC::acrD Pore” value (EKO-35 araC::acrD Pore; [4]) was 1000 µg/mL.
